Values quoted from earlier work as cited in patent publication US10543277B2, “Formulation of curcumin with enhanced bioavailability of curcumin and method of preparation and treatment thereof” (ARJUNA NATURAL PRIVATE LIMITED, priority 2005, dated 2020).

Key:
COX pathway = conditions: 10 μM
[1] = system: LOX (lipoxygenase) pathway; conditions: 10 μM
oral premalignancy = conditions: for responded to maintenance therapy or continued to have stable lesions / subjects who responded to maintenance therapy or continued to have stable lesions: maintenance phase; for subjects who responded to maintenance therapy or continued to have stable lesions: 53 evaluable
[2] = among the 24 13-cRA subjects, 1-2 mg/kg/day for three months

| SMILES | inhibition of metabolism of arachidonic acid to PGD2 (COX pathway) [%] | inhibition of metabolism of arachidonic acid to PGE2 (COX pathway) [%] | inhibition of metabolism of arachidonic acid to PGF2α (COX pathway) [%] | inhibition of conversion of arachidonic acid to 5-hydroxyeicosatetraenoic acid [1] [%] | inhibition of conversion of arachidonic acid to 8-hydroxyeicosatetraenoic acid [1] [%] | responded to maintenance therapy or continued to have stable lesions (oral premalignancy) [%] | subjects who responded to maintenance therapy or continued to have stable lesions (oral premalignancy) | subjects with complete responses (OPLs; [2]) | subjects with partial responses (OPLs; [2]) | relapse after end of therapy (OPLs; in vivo) | subjects with intolerable conjunctivitis and hypertriglyceridemia (OPLs; receiving 2 mg/kg) | rate of response at the conclusion of induction (oral premalignancy; high-dose induction therapy) [%] | rate of stable disease at the conclusion of induction (oral premalignancy; high-dose induction therapy) [%] |
| --- | --- | --- | --- | --- | --- | --- | --- | --- | --- | --- | --- | --- | --- |
| COc1cc(/C=C/C(=O)CC(=O)/C=C/c2ccc(O)c(OC)c2)ccc1O [Curcumin, 1,7-bis(4-hydroxy-3-methoxyphenyl)-1,6-heptadiene-3,5-dione] | 73 | 70 | 64 | 60 | 51 | – | – | – | – | – | – | – | – |
| CC1=C(/C=C/C(C)=C/C=C/C(C)=C/C=C/C=C(C)/C=C/C=C(C)/C=C/C2=C(C)CCCC2(C)C)C(C)(C)CCC1 [β-carotene] | – | – | – | – | – | 45 | 13 | – | – | – | – | – | – |
| CC1=C(/C=C/C(C)=C/C=C/C(C)=C\C(=O)O)C(C)(C)CCC1 [13-cRA, 13-cis-retinoic acid] | – | – | – | – | – | 92 | 22 | 2 | 14 | 2-3 months | 2 | 55 | 35 |
